Source: patent US11045509B2, “Tributyrin compositions and methods therefor” (Compound Solutions, Inc., priority 2019, dated 2021)

Experiments:
Assay type in all cases: in vivo, human
[1] = test system: Firmicutes to Bacteroidetes (F/B) ratio; test: collective Firmicutes to Bacteroidetes (F/B) ratio in stool before and after 3-week tributyrin study; conditions: three volunteers, 300 mg tributyrin per day for 3 weeks, stool samples POST vs PRE, FIG. 4
Experimental: With reference to FIG. 4, the collective ratio of firmicutes to bacteroidetes (F/B ratio) was measured in the stool samples of the three volunteer subjects before and after taking tributyrin daily for three weeks as described in the Examples. The firmicutes and bacteroidetes are each a phylum of bacteria making up the largest portion of the human gut microbiome. In particular the F/B ratio has been reported to be associated with metabolic factors and cardiorespiratory fitness. Durk et al., 2018, Int J Sport Nutr Exerc Metab, 29, 249-253. Accordingly, the inventors contemplate a method of increasing the F/B ratio in the gut of a mammal with the administration of a tributyrin-containing composition to the mammal at a dosage that effectively increases the F/B ratio in the gut of the mammal. […] As such, contemplated compositions are thought to not only selectively improve gut microflora, but also to enhance nutrient uptake. The inventors recruited three volunteers who were asked to provide some basic anthropometric characteristics and lifestyle habits. All volunteer subjects (2 female and 1 male) were free of chronic disease and reported not having taken an antibiotic within the past six months. Body mass index (kg/m^2) analysis classified two of the subjects as “overweight” (BMI>25<30), and one as obese (BMI>30). […]

Faecalibacterium = test: relative abundance of Faecalibacterium in stool before and after 3-week tributyrin study (16S rRNA); conditions: three volunteers, 300 mg tributyrin per day for 3 weeks, stool sample POST vs PRE, FIG. 2
Source text: (§1) The inventors recruited three volunteers who were asked to provide some basic anthropometric characteristics and lifestyle habits. All volunteer subjects (2 female and 1 male) were free of chronic disease and reported not having taken an antibiotic within the past six months. Body mass index (kg/m^2) analysis classified two of the subjects as “overweight” (BMI>25<30), and one as obese (BMI>30). Although activity habits varied, all of the subjects reported weekly participation in light-to-moderate physical activity, and relatively low caffeine intake (<200 mg/day) and alcohol intake (<3 drinks a week). Before the start of the 3-week study, stool samples were collected from each of the 3 volunteers using the commercially available UBiome Explorer kit. The collected stool samples were sent to Ubiome labs (San Francisco, Calif.) where DNA was extracted followed by 16S rRNA gene amplification for bacterial classification. The 3-week study involved each of the volunteers taking 300 milligrams (mg) of tributyrin per day for 3 weeks. Subjects were verbally instructed to maintain usual dietary and physical activity habits throughout the course of the study. At the end of the 3-week period, stool samples were collected following the same protocol, and sent for analysis. […]

Bifidobacterium = test: relative abundance of Bifidobacterium in stool before and after 3-week tributyrin study (16S rRNA); conditions: three volunteers, 300 mg tributyrin per day for 3 weeks, stool sample POST vs PRE, FIG. 1
Source text: as §1

Lachnospira = test: relative abundance of Lachnospira in stool before and after 3-week tributyrin study (16S rRNA); conditions: three volunteers, 300 mg tributyrin per day for 3 weeks, stool sample POST vs PRE, FIG. 3
Source text: as §1

SMILES: CCCC(=O)OCC(COC(=O)CCC)OC(=O)CCC [tributyrin]
- increase of collective F/B ratio [1]: approximately 50%
- increase in relative abundance of Faecalibacterium (Faecalibacterium): 29%
- increase in relative abundance of Bifidobacterium (Bifidobacterium): 8,841%
- increase in relative abundance of Lachnospira (Lachnospira): 114%
